Reference: patent US6534524B1, “Indazole compounds and pharmaceutical compositions for inhibiting protein kinases, and methods for their use” (Agouron Pharmaceuticals, Inc., priority 1999, dated 2003)
Where two headings read alike, the source gives them in different places.

Legend:
[1] = molecular target: CDK2/Cyclin A (Homo sapiens, UniProt P24941); test: CDK2/Cyclin A assay ([32P]ATP, Rb fragment); format: biochemical
[2] = molecular target: CDK4/Cyclin D3 complex (Homo sapiens, UniProt P11802); test: CDK4/Cyclin D assay ([32P]ATP, Rb fragment)
CDK4/Cyclin D3 complex, sequence (P11802 whole entry, the tested form may be a part): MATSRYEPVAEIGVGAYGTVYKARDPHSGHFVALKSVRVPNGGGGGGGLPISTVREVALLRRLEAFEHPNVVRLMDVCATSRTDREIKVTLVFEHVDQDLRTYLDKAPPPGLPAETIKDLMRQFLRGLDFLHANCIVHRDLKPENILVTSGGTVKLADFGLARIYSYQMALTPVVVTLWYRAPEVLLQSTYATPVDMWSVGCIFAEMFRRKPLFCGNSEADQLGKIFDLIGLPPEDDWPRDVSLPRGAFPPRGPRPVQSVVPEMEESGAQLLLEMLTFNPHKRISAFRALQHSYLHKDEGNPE
CDK4/Cyclin D3 complex, sequence (P30281 whole entry partner, the tested form may be a part): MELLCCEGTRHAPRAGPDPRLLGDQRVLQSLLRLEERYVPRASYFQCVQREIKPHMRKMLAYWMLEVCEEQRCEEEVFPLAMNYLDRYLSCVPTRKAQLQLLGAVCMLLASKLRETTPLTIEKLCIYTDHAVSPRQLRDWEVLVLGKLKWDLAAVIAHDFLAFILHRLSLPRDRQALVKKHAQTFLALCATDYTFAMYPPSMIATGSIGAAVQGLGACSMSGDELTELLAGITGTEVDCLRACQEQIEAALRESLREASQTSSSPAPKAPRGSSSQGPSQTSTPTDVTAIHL

[3] = molecular target: T1, human CHK1 (FL-CHK1) (Homo sapiens, UniProt O14757); test: CHK1 assay (coupled spectrophotometric, Syntide-2); format: biochemical; conditions: for Ki: read-out: CHK-1 Ki; for CHK-1 @ 20 μM: Table 4, compound at 20 μM
T1 construct: C-terminally His-tagged full-length human CHK1 (FL-CHK1); made in house; host or cells: baculovirus/insect cell system
T1 sequence (O14757 1-476): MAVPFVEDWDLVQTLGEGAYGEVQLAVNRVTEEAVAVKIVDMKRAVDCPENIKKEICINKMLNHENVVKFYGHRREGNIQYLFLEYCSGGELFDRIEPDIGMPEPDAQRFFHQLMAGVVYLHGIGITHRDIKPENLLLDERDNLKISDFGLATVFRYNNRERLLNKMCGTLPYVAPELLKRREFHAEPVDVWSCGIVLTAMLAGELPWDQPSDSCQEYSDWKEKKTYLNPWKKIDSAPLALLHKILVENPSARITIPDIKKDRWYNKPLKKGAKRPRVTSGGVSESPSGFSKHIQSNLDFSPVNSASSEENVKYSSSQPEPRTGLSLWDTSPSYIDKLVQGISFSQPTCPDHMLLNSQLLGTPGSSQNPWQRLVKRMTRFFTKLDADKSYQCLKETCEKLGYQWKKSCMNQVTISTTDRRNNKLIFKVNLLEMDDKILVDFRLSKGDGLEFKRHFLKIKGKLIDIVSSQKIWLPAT
Excerpt: CHK1 Construct for Assay: C-terminally His-tagged full-length human CHK1 (FL-CHK1) was expressed using the baculovirus/insect cell system. […] The protein was purified by conventional chromatographic techniques.
The production of ADP from ATP that accompanies phosphoryl transfer to the synthetic substrate peptide Syntide-2 ([…]) was coupled to oxidation of NADH using phosphoenolpyruvate (PEP) through the actions of pyruvate kinase (PK) and lactic dehydrogenase (LDH). The oxidation of NADH was monitored by following the decrease of absorbance at 340 nm (ε340=6.22 cm^−1 mM^−1) using a HP8452 spectrophotometer. […] Assays were initiated with 10 nM of FL-CHK1. Ki values were determined by measuring initial enzyme activity in the presence of varying concentrations of test compounds. The data were analyzed using Enzyme Kinetic and Kaleidagraph software.

[4] = molecular target: unphosphorylated VEGF-R2Δ50 (FLVK) (Homo sapiens, UniProt P35968, DEL940-989/E990V); test: VEGF-R2 coupled spectrophotometric assay, unphosphorylated VEGF-R2Δ50 (FLVK); conditions: FLVK Ki, Table 1
unphosphorylated VEGF-R2Δ50 (FLVK), sequence (P35968 with tags, fused parts or gaps DEL940-989/E990V limits assumed): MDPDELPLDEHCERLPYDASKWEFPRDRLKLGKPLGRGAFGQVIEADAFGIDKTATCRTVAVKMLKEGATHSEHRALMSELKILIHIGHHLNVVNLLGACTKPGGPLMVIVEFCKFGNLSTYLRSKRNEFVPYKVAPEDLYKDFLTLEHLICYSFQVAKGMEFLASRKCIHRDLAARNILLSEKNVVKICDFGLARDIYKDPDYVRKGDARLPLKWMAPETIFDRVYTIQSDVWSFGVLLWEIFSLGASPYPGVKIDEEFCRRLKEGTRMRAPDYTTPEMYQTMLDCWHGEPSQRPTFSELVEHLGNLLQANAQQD

Which results are given for `Fc1cccc(/C=C/c2n[nH]c3cc(-c4ccncc4)ccc23)c1F` [29(l), 6-Pyrid-4-yl-3-E-[2-(2,3-difluorophenyl)ethenyl]-1H-indazole]?
Ki ([1]; Table 3): 3.1 µM; Ki [2]: 5 µM

What does the source list for `Nc1cccc(Oc2ccc3c(/C=C/c4ccccc4)n[nH]c3c2)c1` [Example 7, 3-(Styryl-1H-indazol-6-yloxy)-phenylamine]?
Ki ([3]; Table 1): 1.3 µM; Ki [4]: 0.018 µM

Which Ki ([3]; Table 1) does the source give for `Brc1cccc(Oc2ccc3c(/C=C/c4ccccc4)n[nH]c3c2)c1` [Example 8(d), 6-(3-Bromo-phenoxy)-3-styryl-1H-indazole] here?
Its Ki is 82 µM.

And the Ki [4]?
The Ki was 0.011 µM.

How did the Ki ([3]; Table 1) turn out when `C=C(c1ccccc1)c1ccc2c(/C=C/c3ccccc3)n[nH]c2c1` [Example 10, 6-(1-Phenyl-vinyl)-3-styryl-1H-indazole] was run?
Its Ki is 9.1 µM.

And the Ki [4]?
The Ki was 0.009 µM.

Which Ki [2] does the source give for `Cc1cc(O)ccc1-c1ccc2c(-c3nc4ccccc4[nH]3)n[nH]c2c1` [Example 24(b), 4-[3-(1-H-Benzoimidazol-2-yl)-1-H-indazol-6-yl]-3-methyl-phenol] here?
Its Ki is 0.0032 µM.

What does the source list for `CCc1cc(O)ccc1-c1ccc2c(-c3nc4ccccc4[nH]3)n[nH]c2c1` [Example 24(e), 3-1H-Benzoimidazol-2-yl-6-(2-ethyl-4-hydroxyphenyl)-1H-indazole]?
Ki ([1]; Table 2): 0.03 µM; Ki [2]: 0.0044 µM

For `Oc1ccc(-c2ccc3c(-c4nc5ccccc5[nH]4)n[nH]c3c2)c(O)c1` [Example 24(f), 3-1H-Benzoimidazol-2-yl-6-(2,4-dihydroxyphenyl)-1H-indazole], which Ki ([1]; Table 2) is on record?
The Ki was 0.0072 µM.

What about the Ki [2] of the same compound?
Its Ki is 0.0074 µM.

For `COCCc1cc(O)ccc1-c1ccc2c(-c3nc4ccccc4[nH]3)n[nH]c2c1` [Example 24(h), 3-1H-Benzoimidazol-2-yl-6-(2-(2-methoxyethyl)-4-hydroxyphenyl)-1H-indazole], which Ki ([1]; Table 2) is on record?
The Ki was 0.054 µM.

What about the Ki [2] of the same compound?
Its Ki is 0.053 µM.

For `Cc1cc(O)cc(C)c1-c1ccc2c(-c3nc4ccccc4[nH]3)n[nH]c2c1` [Example 24(j), 3-1H-Benzoimidazol-2-yl-6-(2,6-dimethyl-4-hydroxyphenyl)-1H-indazole], which Ki ([1]; Table 2) is on record?
Its Ki is 2.1 µM.

What about the Ki [2] of the same compound?
The Ki was 0.32 µM.

How did the Ki ([1]; Table 2) turn out when `COc1cc(-c2ccc3c(-c4nc5ccccc5[nH]4)n[nH]c3c2)c(CO)cc1O` [Example 24(n), 3-1H-Benzoimidazol-2-yl-6-(2-(hydroxymethyl)-5-methoxy-4-hydroxy-phenyl)-1H-indazole] was run?
The Ki was 0.035 µM.

And the Ki [2]?
Its Ki is 0.019 µM.

With `Oc1cccc(-c2ccc3c(-c4nc5ccccc5[nH]4)n[nH]c3c2)c1` [Example 24(o), 3-1H-Benzoimidazol-2-yl-6-(3-hydroxyphenyl)-1H-indazole] as the compound, how does the Ki ([1]; Table 2) read?
The Ki was 0.029 µM.

What about the Ki [2] of the same compound?
The Ki was 0.2 µM.

For `COc1c(O)cccc1-c1ccc2c(-c3nc4ccccc4[nH]3)n[nH]c2c1` [Example 24(p), 3-1H-Benzoinidazol-2-yl-6-(2-methoxy-3-hydroxyphenyl)-1H-indazole], which Ki ([1]; Table 2) is on record?
The Ki was 0.089 µM.

What about the Ki [2] of the same compound?
The Ki was 0.092 µM.

What does the source list for `COc1cc(O)ccc1-c1ccc2c(-c3nc4cnccc4[nH]3)n[nH]c2c1` [Example 25(a), 3-(3H-Iniidazo[4,5-c]pyridin-2-yl)-6-(4-hydroxy-2-methoxyphenyl)-1H-indazole]?
Ki ([1]; Table 2): 0.08 µM; Ki [2]: 0.021 µM

Which Ki [2] does the source give for `COc1cc(O)ccc1-c1ccc2c(-c3nc4ccc(C(=O)NCCN5CCOCC5)cc4[nH]3)n[nH]c2c1` [Example 25(b), 3-[6-(2-Morpholin-4-yl-ethylcarbamoyl)-1H-benzoimidazol-2-yl]-6-(2-methoxy-4-hydroxyphenyl)-1H-indazole] here?
Its Ki is 0.048 µM.

Which Ki [2] does the source give for `COc1cc(O)ccc1-c1ccc2c(-c3nc4ccc(N5CCN(C)CC5)cc4[nH]3)n[nH]c2c1` [Example 25(c), 3-[6-(4-Methylpiperazin-1-yl)-1H-benzoimidazol-2-yl]-6-(2-methoxy-4-hydroxyphenyl)-1H-indazole] here?
The Ki was 0.0155 µM.

How did the Ki ([1]; Table 2) turn out when `COc1cc(O)ccc1-c1ccc2c(-c3nc4c(N5CCN(C)CC5)cccc4[nH]3)n[nH]c2c1` [Example 25(d), 3-[4-(4-Methylpiperazin-1-yl)-1H-benzoinidazol-2-yl]-6-(2-methoxy-4-hydroxyphenyl)-1H-indazole] was run?
Its Ki is 0.16 µM.

What about the Ki [2] of the same compound?
Its Ki is 0.098 µM.

With `COc1cc(O)ccc1-c1ccc2c(-c3ncc[nH]3)n[nH]c2c1` [Example 25(e), 3-Imdazol-2-yl-6-(2-methoxy-4-hydroxyphenyl)-1H-indazole] as the compound, how does the Ki [2] read?
Its Ki is 0.181 µM.

For `COc1cc(O)ccc1-c1ccc2c(-c3nc4c(SCCO)cccc4[nH]3)n[nH]c2c1` [Example 25(f), 3-[4-(2-Hydroxyethylsulfanyl)-1H-benzoimidazol-2-yl]-6-(2-methoxy-4-hydroxyphenyl)-1H-indazole], which Ki ([1]; Table 2) is on record?
The Ki was 0.39 µM.

What about the Ki [2] of the same compound?
Its Ki is 1 µM.

Which Ki ([1]; Table 2) does the source give for `CNC(=O)c1ccc2[nH]c(-c3n[nH]c4cc(-c5ccc(O)cc5OC)ccc34)nc2c1` [Example 25(g), 3-(5-Methylcarbamoyl-1H-benzoimidazol-2-yl)-6-(2-methoxy-4-hydroxyphenyl)-1H-indazole] here?
Its Ki is 0.08 µM.

What about the Ki [2] of the same compound?
Its Ki is 0.021 µM.

With `COc1cc(O)ccc1-c1ccc2c(-c3nc4cc(N(C)C)ccc4[nH]3)n[nH]c2c1` [Example 25(h), 3-(5-Dimethylamino-1H-benzoimidazol-2-yl)-6-(2-methoxy-4-hydroxy-phenyl)-1H-indazole] as the compound, how does the Ki ([1]; Table 2) read?
The Ki was 0.17 µM.

And the Ki [2]?
The Ki was 0.024 µM.

Which Ki ([1]; Table 2) does the source give for `COc1cc(O)ccc1-c1ccc2c(-c3nc4ccc(S(N)(=O)=O)cc4[nH]3)n[nH]c2c1` [Example 25(i), 3-(5-Aminosulfonyl-1H-benzoimidazol-2-yl)-6-(2-methoxy-4-hydroxy-phenyl)-1H-indazole] here?
The Ki was 0.021 µM.

What about the Ki [2] of the same compound?
The Ki was 0.02 µM.

`CNC(=O)c1cccc2[nH]c(-c3n[nH]c4cc(-c5ccc(O)cc5OC)ccc34)nc12` [Example 25(j), 3-(4-Methylcarbamoyl-1H-benzoinidazol-2-yl)-6-(2-methoxy-4-hydroxy-phenyl)-1H-indazole] was tested. Which Ki ([1]; Table 2) did it give?
The Ki was 0.079 µM.

And the Ki [2]?
Its Ki is 0.016 µM.

With `O=C(Nc1ccc(O)cc1)c1ccc2c(-c3nc4cc(Cl)c(Cl)cc4[nH]3)n[nH]c2c1` [Example 54(b), 3-(5,6-Dichloro-1H-benzoimidazol-2-yl)-N-(4-hydroxyphenyl)-1H-indazole-6-carboxamide] as the compound, how does the Ki ([3]; Table 3) read?
Its Ki is 3.1 µM.

How did the Ki ([3]; Table 3) turn out when `O=C(Nc1ccc(O)cc1)c1ccc2c(-c3nc4cc5ccccc5cc4[nH]3)n[nH]c2c1` [Example 54(d), 3-[1H-Naphtho(2,3-d)imidazol-2-yl]-N-(4-hydroxyphenyl)-1H-indazole-6-carboxamide] was run?
Its Ki is 0.68 µM.

For `Cc1ccc2[nH]c(-c3n[nH]c4cc(C(=O)Nc5ccc(O)cc5)ccc34)nc2c1C` [Example 54(f), 3-(4,5-Dimethyl-1H-benzoimidazol-2-yl)-N-(4-hydroxyphenyl)-1H-indazole-6-carboxamide], which Ki ([3]; Table 3) is on record?
The Ki was 2.9 µM.

Which Ki ([3]; Table 3) does the source give for `O=C(Nc1ccc(O)cc1)c1ccc2c(-c3nc4cc(C(F)(F)F)ccc4[nH]3)n[nH]c2c1` [Example 54(h), 3-(5-Trifluoromethyl-1H-benzoimidazol-2-yl)-N-(4-hydroxyphenyl)-1H-indazole-6-carboxamide] here?
Its Ki is 1 µM.

Which Ki ([3]; Table 3) does the source give for `O=C(Nc1ccc(O)cc1)c1ccc2c(-c3nc4cc(Cl)ccc4[nH]3)n[nH]c2c1` [Example 54(l), 3-(5-Chloro-1H-benzoimidazol-2-yl)-N-(4-hydroxyphenyl)-1H-indazole-6-carboxamide] here?
Its Ki is 0.99 µM.

For `c1ccc2[nH]c(-c3n[nH]c4cc(-c5ccncc5)ccc34)nc2c1` [Example 55, 3-1H-Benzoimidazol-2-yl-6-pyridin-4-yl-1H-indazole], which Ki ([3]; Table 3) is on record?
Its Ki is 10 µM.

Which “CHK-1 @ 20 μM” value [3] does the source give for `O=C(NC1CCS(=O)(=O)C1)c1ccc2c(-c3nc4ccccc4[nH]3)n[nH]c2c1` (stereo not drawn) [drawing 1226] here?
Its value is 24.2.

How did the “CHK-1 @ 20 μM” value [3] turn out when `O=C(Nc1ccc2[nH]c(=O)[nH]c2c1)c1ccc2c(-c3nc4ccccc4[nH]3)n[nH]c2c1` [drawing 1232] was run?
Its value is 32.3.

For `O=C(Nc1cnccn1)c1ccc2c(-c3nc4ccccc4[nH]3)n[nH]c2c1` [drawing 1245], which “CHK-1 @ 20 μM” value [3] is on record?
Its value is 36.3.

Which “CHK-1 @ 20 μM” value [3] does the source give for `O=C(Nc1ncnc2[nH]cnc12)c1ccc2c(-c3nc4ccccc4[nH]3)n[nH]c2c1` [drawing 1250] here?
The value was 38.6.

For `COc1ccc(NC(=O)c2ccc3c(-c4nc5ccccc5[nH]4)n[nH]c3c2)cc1O` [drawing 1257], which “CHK-1 @ 20 μM” value [3] is on record?
Its value is 32.3.

`COC(=O)c1ccc(NC(=O)c2ccc3c(-c4nc5ccccc5[nH]4)n[nH]c3c2)o1` [drawing 1258] was tested. Which “CHK-1 @ 20 μM” value [3] did it give?
The value was 42.9.

Which “CHK-1 @ 20 μM” value [3] does the source give for `C=CCC(NC(=O)c1ccc2c(-c3nc4ccccc4[nH]3)n[nH]c2c1)c1ccccn1` (stereo not drawn) [drawing 1259] here?
The value was 24.1.

With `COC(=O)c1cc(NC(=O)c2ccc3c(-c4nc5ccccc5[nH]4)n[nH]c3c2)ccc1O` [drawing 1260] as the compound, how does the “CHK-1 @ 20 μM” value [3] read?
Its value is 31.6.
